≈ marks a conversion by molar mass, not a printed value.
Target: T1, rat intestinal alpha glucosidase
T1 construct: gene Si; rat intestinal alpha-glucosidase preparation
Assay: alpha-glucosidase inhibition assay
Format: biochemical
Settings: standard; rat intestinal enzyme

IC50: 49.78 ± 1.45 µg/mL (≈ 77.1 µM)
SMILES: C[C@H]1O[C@H](O[C@H]2[C@H](O)[C@@H](O)[C@@H](O[C@H]3[C@H](O)[C@@H](O)C(O)O[C@@H]3CO)O[C@@H]2CO)[C@H](O)[C@@H](O)[C@@H]1N[C@H]1C=C(CO)[C@@H](O)[C@H](O)[C@H]1O (stereo partly shown) [acarbose]

Reference: paper PMC4153544, “Antidiabetic Property of Symplocos cochinchinensis Is Mediated by Inhibition of Alpha Glucosidase and Enhanced Insulin Sensitivity” (PLoS ONE, 2014)
